Measured values taken from ChEMBL document CHEMBL1201862, “PubChem BioAssay data set” (2004).
Active and inactive are the calls of the source.

Legend:
[1] = NIH-3T3 fibroblast cytotoxicity, dose response, cytotoxicity control, cell-based, fluorescence, Alamar Blue, secondary assay (AID 2327); assay type: functional;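 also: NIH-3T3 mouse fibroblasts cultured with fluconazole at 8 µg/mL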
[2] = decrease of insulin promoter-GFP reporter – imaging, high-content screening, mouse beta cells (AID 1628); assay type: functional; details: MIN6
[3] = MIN6 cell viability loss – mouse insulinoma, cytotoxicity control, dose response (AID 2122); assay type: functional;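 also: confirmatory high-throughput counterscreen run to flag cytotoxic compounds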
[4] = fluconazole-exposed Candida albicans growth modulators – fluorescence, retest, confirmation (AID 2467); assay type: functional, cell-based
[5] = THP-1 cell cytotoxicity, dose response, cytotoxicity control for non-replicating M. tuberculosis project (AID 489025); assay type: functional
[6] = HepG2 cell cytotoxicity, dose response, cytotoxicity control for non-replicating M. tuberculosis project (AID 489018); assay type: functional; details: Mycobacterium tuberculosis
cells = assay type: functional
[7] = blockers of HIV-1 envelope-mediated cell-cell fusion – cherry-pick, dose response (AID 652057); assay type: functional, cell-based
[8] = viability loss in CEM21 cells – cell-based, CellTiter-Glo luminescence, cherry-picked, cytotoxicity control for viral fusion inhibitor project, dose response (AID 652042); assay type: functional;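 also: potency for signal decrease meaning cytotoxicity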
[9] = blockers of HIV-1 ZM109 envelope-driven cell-cell fusion – HeLa effector, CEM target cells, luciferase, cherry-pick, dose response (AID 652058); assay type: functional, cell-based;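 also: luciferase signal from HIV-1 Env mediated cell-cell fusion of effector and target cells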
[10] = off-target signal loss in HeLa-CEM21 co-culture – HeLa F-luc CTL cells, cherry-picked, counter-screen for HIV-1 Env fusion inhibitor project, dose response (AID 652040); assay type: functional, cell-based;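 also: potency for signal decrease marking cytotoxic or nonspecific inhibition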
[11] = HIV-1 AD8 envelope cell-cell fusion blockers – cherry-pick, dose response (AID 652062); assay type: functional, cell-based;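 also: luciferase signal from cell-cell fusion driven by HIV-1 clade B AD8 Env; potency is for inhibitors of fusion seen as a drop in luminescence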
[12] = target: Eukaryotic translation initiation factor 4H (Homo sapiens, UniProt Q15056); assay: eIF4H binding inhibition – biochemical, uHTS, fluorescence polarization, translation initiation inhibitor project, primary screen (AID 2012)
[13] = target: Polyadenylate-binding protein 1 (Homo sapiens, UniProt P11940); assay: blockers of PABP interaction with poly(A) – biochemical, fluorescence polarization, […] (AID 2014)
Polyadenylate-binding protein 1, sequence (P11940 whole entry): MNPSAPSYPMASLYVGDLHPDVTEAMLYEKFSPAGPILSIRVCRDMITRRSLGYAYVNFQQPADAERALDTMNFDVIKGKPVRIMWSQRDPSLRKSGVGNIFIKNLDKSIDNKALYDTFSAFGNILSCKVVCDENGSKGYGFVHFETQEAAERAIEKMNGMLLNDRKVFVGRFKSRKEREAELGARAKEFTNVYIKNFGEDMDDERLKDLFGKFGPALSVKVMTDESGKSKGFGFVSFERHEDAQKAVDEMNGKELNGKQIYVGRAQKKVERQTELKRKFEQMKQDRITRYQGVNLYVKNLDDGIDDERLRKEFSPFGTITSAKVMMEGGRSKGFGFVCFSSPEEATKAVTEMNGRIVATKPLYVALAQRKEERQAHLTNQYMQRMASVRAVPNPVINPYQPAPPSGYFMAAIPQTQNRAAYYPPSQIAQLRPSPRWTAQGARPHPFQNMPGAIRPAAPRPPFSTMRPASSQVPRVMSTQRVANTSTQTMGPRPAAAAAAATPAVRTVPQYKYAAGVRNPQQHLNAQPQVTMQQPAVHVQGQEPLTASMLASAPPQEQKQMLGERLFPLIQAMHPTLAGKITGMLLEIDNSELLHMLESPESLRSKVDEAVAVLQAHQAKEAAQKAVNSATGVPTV

[14] = target: T1, Intestinal-type alkaline phosphatase (Mus musculus, UniProt P24822); assay: PubChem AID 488785; assay type: functional
T1 sequence (P24822 whole entry): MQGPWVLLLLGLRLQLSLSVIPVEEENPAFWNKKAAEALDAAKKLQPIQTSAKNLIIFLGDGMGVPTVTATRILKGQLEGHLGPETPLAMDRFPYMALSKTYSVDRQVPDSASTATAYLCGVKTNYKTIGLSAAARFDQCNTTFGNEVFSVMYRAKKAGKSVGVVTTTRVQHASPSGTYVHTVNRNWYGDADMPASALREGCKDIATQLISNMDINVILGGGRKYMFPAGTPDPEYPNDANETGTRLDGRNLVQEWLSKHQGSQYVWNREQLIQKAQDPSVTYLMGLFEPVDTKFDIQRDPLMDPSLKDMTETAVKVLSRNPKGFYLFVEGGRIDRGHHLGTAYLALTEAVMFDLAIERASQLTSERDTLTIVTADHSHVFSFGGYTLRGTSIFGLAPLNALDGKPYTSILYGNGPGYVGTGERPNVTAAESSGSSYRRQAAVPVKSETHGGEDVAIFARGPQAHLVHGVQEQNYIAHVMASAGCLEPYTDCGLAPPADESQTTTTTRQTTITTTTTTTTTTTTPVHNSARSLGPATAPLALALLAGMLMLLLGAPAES

[15] = target: T2, Alkaline phosphatase, tissue-nonspecific isozyme (Homo sapiens, UniProt P05186); assay: TNAP enzyme inhibition by screening hits, dose response, selectivity assay for mouse IAP inhibitor project, biochemical, human TNAP, uHTS hits (AID 488906); assay type: functional
T2 sequence (P05186 whole entry): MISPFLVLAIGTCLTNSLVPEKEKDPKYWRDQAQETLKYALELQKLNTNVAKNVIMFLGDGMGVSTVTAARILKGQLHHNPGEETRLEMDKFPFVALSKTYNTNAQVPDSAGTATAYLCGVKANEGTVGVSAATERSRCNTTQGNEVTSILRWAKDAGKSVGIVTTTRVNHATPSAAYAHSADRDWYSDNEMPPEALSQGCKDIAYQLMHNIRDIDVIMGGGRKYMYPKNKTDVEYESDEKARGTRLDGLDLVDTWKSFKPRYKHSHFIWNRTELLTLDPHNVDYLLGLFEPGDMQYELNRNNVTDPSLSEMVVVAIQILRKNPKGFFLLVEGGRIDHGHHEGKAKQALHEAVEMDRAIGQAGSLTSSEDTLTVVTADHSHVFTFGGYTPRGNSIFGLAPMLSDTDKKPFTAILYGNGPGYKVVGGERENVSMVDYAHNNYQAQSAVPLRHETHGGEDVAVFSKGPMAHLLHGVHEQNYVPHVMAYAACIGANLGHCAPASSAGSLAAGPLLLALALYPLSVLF

[16] = target: T3, Intestinal-type alkaline phosphatase (Homo sapiens, UniProt P09923); assay: inhibition of human intestinal alkaline phosphatase – biochemical, dose response (AID 488876); assay type: functional
T3 sequence (P09923 whole entry): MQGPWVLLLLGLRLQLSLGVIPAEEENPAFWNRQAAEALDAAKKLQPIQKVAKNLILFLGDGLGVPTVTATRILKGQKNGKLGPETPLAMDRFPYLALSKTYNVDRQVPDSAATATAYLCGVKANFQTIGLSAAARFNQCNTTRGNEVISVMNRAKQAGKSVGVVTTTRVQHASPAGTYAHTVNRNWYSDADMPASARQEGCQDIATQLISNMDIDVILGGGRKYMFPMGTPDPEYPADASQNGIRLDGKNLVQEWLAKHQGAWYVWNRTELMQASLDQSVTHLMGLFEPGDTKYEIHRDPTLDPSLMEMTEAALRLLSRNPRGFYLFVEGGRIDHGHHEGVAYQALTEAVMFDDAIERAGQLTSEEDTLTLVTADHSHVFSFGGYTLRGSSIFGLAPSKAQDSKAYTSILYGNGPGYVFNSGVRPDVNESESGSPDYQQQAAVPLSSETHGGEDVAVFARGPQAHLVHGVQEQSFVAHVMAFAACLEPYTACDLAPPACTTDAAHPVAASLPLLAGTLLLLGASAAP

[17] = target: T4, Short transient receptor potential channel 4 (Mus musculus, UniProt Q9QUQ5); assay: block of DAMGO-driven TRPC4 calcium entry – cell-based, HEK293 TRPC4/mu-opioid, Fluo-4 calcium, dose response (AID 434942); assay type: functional;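 also: potency of inhibitors blocking the TRPC4 calcium response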
T4 sequence (Q9QUQ5 whole entry): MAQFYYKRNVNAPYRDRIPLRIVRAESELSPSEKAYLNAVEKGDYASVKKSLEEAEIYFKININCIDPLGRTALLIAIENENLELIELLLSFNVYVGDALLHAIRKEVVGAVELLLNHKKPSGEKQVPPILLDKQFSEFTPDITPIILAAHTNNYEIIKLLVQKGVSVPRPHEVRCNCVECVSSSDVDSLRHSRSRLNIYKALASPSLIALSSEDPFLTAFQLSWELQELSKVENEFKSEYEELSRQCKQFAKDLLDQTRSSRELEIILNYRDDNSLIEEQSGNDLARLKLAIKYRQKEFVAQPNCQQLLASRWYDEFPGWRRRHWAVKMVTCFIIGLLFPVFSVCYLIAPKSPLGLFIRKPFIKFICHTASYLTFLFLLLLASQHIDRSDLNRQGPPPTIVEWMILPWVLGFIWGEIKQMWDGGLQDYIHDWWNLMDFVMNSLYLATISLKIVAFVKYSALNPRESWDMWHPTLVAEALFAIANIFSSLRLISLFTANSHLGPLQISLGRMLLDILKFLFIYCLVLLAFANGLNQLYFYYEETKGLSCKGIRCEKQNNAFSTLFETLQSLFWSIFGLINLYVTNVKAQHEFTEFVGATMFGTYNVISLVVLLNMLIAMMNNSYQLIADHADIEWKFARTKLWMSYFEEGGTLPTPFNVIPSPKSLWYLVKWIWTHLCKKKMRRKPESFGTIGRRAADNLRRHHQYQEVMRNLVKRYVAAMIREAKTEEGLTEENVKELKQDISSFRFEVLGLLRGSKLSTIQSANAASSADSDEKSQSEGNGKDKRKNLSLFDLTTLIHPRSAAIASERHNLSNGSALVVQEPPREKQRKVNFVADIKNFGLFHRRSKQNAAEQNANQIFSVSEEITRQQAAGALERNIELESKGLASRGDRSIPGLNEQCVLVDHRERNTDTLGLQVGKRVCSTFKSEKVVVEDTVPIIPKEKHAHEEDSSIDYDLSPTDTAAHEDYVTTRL

[18] = target: T1, Intestinal-type alkaline phosphatase; assay: PubChem AID 488875; assay type: functional
[19] = target: T3, Intestinal-type alkaline phosphatase; assay: human intestinal alkaline phosphatase activators, dose response, biochemical, luminescence, uHTS hits (AID 463120); assay type: functional
[20] = target: T3, Intestinal-type alkaline phosphatase; assay: activation of human intestinal alkaline phosphatase – biochemical, luminescent, uHTS hits, set 2, dose response (AID 488817); assay type: functional;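 also: potency of activators that raise enzyme activity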
[21] = target: T2, Alkaline phosphatase, tissue-nonspecific isozyme; assay: activation of tissue-nonspecific alkaline phosphatase – biochemical, TNAP isozyme, human IAP uHTS hits, selectivity assay for human IAP activator project, dose response (AID 488886); assay type: functional;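 also: potency of compounds raising TNAP activity as a selectivity check on IAP activators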
[22] = target: Sphingosine 1-phosphate receptor 5 (Homo sapiens, UniProt Q9H228); assay: Late stage counterscreen assay for S1P4 antagonists: Fluorescence dose response cell-based screening assay for antagonists of the Sphingosine 1-Phosphate Receptor 5 (S1P5). [Related pubchem assays (depositor defined):AID1510, AID1524, AID1692, AID1853, AID2332, AID489009, AID489017]; assay type: functional
Sphingosine 1-phosphate receptor 5, sequence (Q9H228 whole entry): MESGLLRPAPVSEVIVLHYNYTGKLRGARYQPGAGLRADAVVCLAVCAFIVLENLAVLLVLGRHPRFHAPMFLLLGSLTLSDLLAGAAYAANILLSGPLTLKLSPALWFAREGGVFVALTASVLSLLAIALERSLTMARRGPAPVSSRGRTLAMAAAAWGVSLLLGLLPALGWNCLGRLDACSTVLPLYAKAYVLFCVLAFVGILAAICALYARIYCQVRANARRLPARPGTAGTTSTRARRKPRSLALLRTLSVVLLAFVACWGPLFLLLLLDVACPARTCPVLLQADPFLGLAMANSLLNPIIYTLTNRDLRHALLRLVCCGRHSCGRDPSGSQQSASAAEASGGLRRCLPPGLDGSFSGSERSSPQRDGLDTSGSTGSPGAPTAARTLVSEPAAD

[23] = target: Sphingosine 1-phosphate receptor 3 (Homo sapiens, UniProt Q99500); assay: Late stage counterscreen assay for S1P4 antagonists: Fluorescence dose response cell-based screening assay for antagonists of the Sphingosine 1-Phosphate Receptor 3 (S1P3). [Related pubchem assays (depositor defined):AID1510, AID1524, AID1692, AID1853, AID2332, AID489009, AID489017]; assay type: functional
Sphingosine 1-phosphate receptor 3, sequence (Q99500 whole entry): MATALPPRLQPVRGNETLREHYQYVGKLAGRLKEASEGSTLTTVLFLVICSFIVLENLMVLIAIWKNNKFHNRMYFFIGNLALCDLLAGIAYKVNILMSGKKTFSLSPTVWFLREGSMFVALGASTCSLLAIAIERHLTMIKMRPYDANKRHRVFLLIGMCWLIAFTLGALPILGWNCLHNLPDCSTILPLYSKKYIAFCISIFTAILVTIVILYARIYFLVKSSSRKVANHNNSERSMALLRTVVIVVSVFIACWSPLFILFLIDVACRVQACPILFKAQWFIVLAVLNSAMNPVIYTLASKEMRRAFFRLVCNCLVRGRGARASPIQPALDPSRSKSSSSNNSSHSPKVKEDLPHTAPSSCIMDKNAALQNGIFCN

[24] = target: Sphingosine 1-phosphate receptor 1 (Homo sapiens, UniProt P21453); assay: Late stage counterscreen assay for S1P4 antagonists: Fluorescence dose response cell-based screening assay for antagonists of the Sphingosine 1-Phosphate Receptor 1 (S1P1). [Related pubchem assays (depositor defined):AID1510, AID1524, AID1692, AID1853, AID2332, AID489009, AID489017]; assay type: functional
Sphingosine 1-phosphate receptor 1, sequence (P21453 whole entry): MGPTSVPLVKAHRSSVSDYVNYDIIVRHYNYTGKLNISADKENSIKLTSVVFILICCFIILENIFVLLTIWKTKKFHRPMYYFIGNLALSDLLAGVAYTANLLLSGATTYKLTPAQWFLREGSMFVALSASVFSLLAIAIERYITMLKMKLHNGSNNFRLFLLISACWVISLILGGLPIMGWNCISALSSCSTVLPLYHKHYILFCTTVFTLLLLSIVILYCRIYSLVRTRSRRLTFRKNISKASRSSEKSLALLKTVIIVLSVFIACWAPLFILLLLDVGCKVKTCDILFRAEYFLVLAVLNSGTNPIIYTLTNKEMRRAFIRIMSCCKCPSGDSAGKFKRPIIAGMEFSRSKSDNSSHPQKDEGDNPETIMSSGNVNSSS

[25] = target: Sphingosine 1-phosphate receptor 2 (Homo sapiens, UniProt O95136); assay: Late stage counterscreen assay for S1P4 antagonists: Fluorescence dose response cell-based screening assay for antagonists of the Sphingosine 1-Phosphate Receptor 2 (S1P2). [Related pubchem assays (depositor defined):AID1510, AID1524, AID1692, AID1853, AID2332, AID489009, AID489017]; assay type: functional
Sphingosine 1-phosphate receptor 2, sequence (O95136 whole entry): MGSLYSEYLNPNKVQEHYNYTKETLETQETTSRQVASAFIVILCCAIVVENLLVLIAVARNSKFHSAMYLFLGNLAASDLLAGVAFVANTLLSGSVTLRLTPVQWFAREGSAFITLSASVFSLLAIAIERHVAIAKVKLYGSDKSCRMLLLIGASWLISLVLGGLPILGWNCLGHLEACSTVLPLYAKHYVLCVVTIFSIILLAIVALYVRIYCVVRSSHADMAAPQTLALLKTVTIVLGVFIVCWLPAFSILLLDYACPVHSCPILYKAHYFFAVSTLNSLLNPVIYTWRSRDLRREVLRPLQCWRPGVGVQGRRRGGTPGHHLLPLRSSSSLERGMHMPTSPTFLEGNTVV

**Q.** For CC(C)[C@@H]1CC[C@@H](C)C[C@H]1OC(=O)C[n+]1cc(-c2ccc(Cl)cc2)n2c1CCCCC2, which EC50 [1] is on record?
**A.** 23.8 µM (inconclusive)

**Q.** What about the IC50 [2] of the same molecule?
**A.** 1.14 µM (active)

**Q.** And the IC50 [3]?
**A.** 1.16 µM (active)

**Q.** And the EC50 [4]?
**A.** 0.225 µM (active)

**Q.** What about the CC50 [5] of the same molecule?
**A.** 4.52 µM (active)

**Q.** And the CC50 [6]?
**A.** > 20 µM (active)

**Q.** And the IC50 (cells)?
**A.** 6.86 µM (active)

**Q.** What about the AC50 [7] of the same molecule?
**A.** 16.3 µM (active)

**Q.** What about the AC50 [8] of the same molecule?
**A.** 8.93 µM (active)

**Q.** And the AC50 [9]?
**A.** 8.56 µM (active)

**Q.** And the AC50 [10]?
**A.** 37 µM (active)

**Q.** And the AC50 [11]?
**A.** 9.97 µM (active)

**Q.** What does the source list for COc1cc(OC)c2c(c1O)OC(c1ccccc1)CC2=O (stereo unspecified)?
**A.** IC50 [12]: 48.6 µM (active); IC50 [13]: 91.1 µM (active); IC50 [14]: 21.8 µM (active); IC50 [15]: > 100 µM (inactive); IC50 [16]: > 100 µM (inactive)

**Q.** With CCOc1ccccc1CN1CCC(n2nccc2NC(=O)CCc2ccccc2)CC1 as the molecule, how does the EC50 [17] read?
**A.** 0.473 µM (active)

**Q.** And the EC50 [18]?
**A.** 80.6 µM (active)

**Q.** What about the EC50 [19] of the same molecule?
**A.** 59.9 µM (active)

**Q.** What about the EC50 [20] of the same molecule?
**A.** 80.1 µM (active)

**Q.** And the EC50 [21]?
**A.** 74.4 µM (active)

**Q.** Which results are given for Cc1cccc(C)c1NC(=O)c1ccc(-c2cccc(Cl)c2)o1?
**A.** IC50 [22]: > 25 µM (inactive); IC50 [23]: > 25 µM (inactive); IC50 [24]: > 25 µM (inactive); IC50 [25]: > 25 µM (inactive)
